What was measured:
Assay in all cases: relative viability (nuclei count vs DMSO), 5 days (fraction); higher = more cells survive
Pazopanib + Pictilisib = compound: Cc1ccc(Nc2nccc(N(C)c3ccc4c(C)n(C)nc4c3)n2)cc1S(N)(=O)=O [Pazopanib] + CS(=O)(=O)N1CCN(Cc2cc3nc(-c4cccc5[nH]ncc45)nc(N4CCOCC4)c3s2)CC1 [Pictilisib] (partner 1 µM)
Outline: (§1)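 Each reported value is a median over duplicate plates. It expresses relative viability: treated-well nuclei count divided by vehicle-well nuclei count. Lung cancer cell lines in 1536-well plates were dosed by pin tool a day after seeding, alone with one drug or with a fixed anchor-drug dose plus five library-drug doses (not always all listed) in √10 steps, and nuclei were counted after 5 days.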

Ponatinib + Foretinib = compound: Cc1ccc(C(=O)Nc2ccc(CN3CCN(C)CC3)c(C(F)(F)F)c2)cc1C#Cc1cnc2cccnn12 [Ponatinib] + COc1cc2c(Oc3ccc(NC(=O)C4(C(=O)Nc5ccc(F)cc5)CC4)cc3F)ccnc2cc1OCCCN1CCOCC1 [Foretinib] (partner 0.25 µM)
Outline: as §1

Pazopanib + Trametinib = compound: Cc1ccc(Nc2nccc(N(C)c3ccc4c(C)n(C)nc4c3)n2)cc1S(N)(=O)=O [Pazopanib] + CC(=O)Nc1cccc(-n2c(=O)n(C3CC3)c(=O)c3c(Nc4ccc(I)cc4F)n(C)c(=O)c(C)c32)c1 [Trametinib] (partner 0.02 µM)
Outline: as §1

Ponatinib + Crizotinib = compound: Cc1ccc(C(=O)Nc2ccc(CN3CCN(C)CC3)c(C(F)(F)F)c2)cc1C#Cc1cnc2cccnn12 [Ponatinib] + C[C@@H](Oc1cc(-c2cnn(C3CCNCC3)c2)cnc1N)c1c(Cl)ccc(F)c1Cl [Crizotinib] (partner 1 µM)
Outline: as §1

| Cell Line | relative viability (Pazopanib + Pictilisib; first compound 0.01 µM) | relative viability (Pazopanib + Pictilisib; first compound 0.03162 µM) | relative viability (Pazopanib + Pictilisib; first compound 0.1 µM) | relative viability (Pazopanib + Pictilisib; first compound 0.3162 µM) | relative viability (Pazopanib + Pictilisib; first compound 1 µM) | relative viability (Ponatinib + Foretinib; first compound 0.002 µM) | relative viability (Ponatinib + Foretinib; first compound 0.006325 µM) | relative viability (Ponatinib + Foretinib; first compound 0.06325 µM) | relative viability (Ponatinib + Foretinib; first compound 0.2 µM) | relative viability (Pazopanib + Trametinib; first compound 0.01 µM) | relative viability (Pazopanib + Trametinib; first compound 0.03162 µM) | relative viability (Pazopanib + Trametinib; first compound 0.1 µM) | relative viability (Pazopanib + Trametinib; first compound 0.3162 µM) | relative viability (Pazopanib + Trametinib; first compound 1 µM) | relative viability (Ponatinib + Crizotinib; first compound 0.002 µM) | relative viability (Ponatinib + Crizotinib; first compound 0.006325 µM) | relative viability (Ponatinib + Crizotinib; first compound 0.06325 µM) | relative viability (Ponatinib + Crizotinib; first compound 0.2 µM) |
| --- | --- | --- | --- | --- | --- | --- | --- | --- | --- | --- | --- | --- | --- | --- | --- | --- | --- | --- |
| NCI-H1437 | 0.343 | 0.449 | 0.441 | 0.499 | 0.626 | 1.22 | 1.22 | 1.31 | 1.28 | 0.525 | 0.531 | 0.454 | 0.575 | 0.509 | 0.899 | 0.957 | 0.967 | 0.763 |
| ChaGo-K-1 | 0.543 | 0.876 | 0.632 | 0.613 | 0.759 | 0.868 | 0.923 | 0.959 | 0.832 | 0.908 | 0.75 | 0.904 | 0.905 | 0.901 | 1.12 | 1.16 | 1.08 | 0.95 |
| NCI-H661 | 0.353 | 0.417 | 0.366 | 0.376 | 0.446 | 1.03 | 0.98 | 0.993 | 0.998 | 0.518 | 0.589 | 0.621 | 0.614 | 0.534 | 1.02 | 1.04 | 0.99 | 1.13 |
| COR-L23 | 0.649 | 0.771 | 0.805 | 0.962 | 0.881 | 0.931 | 0.896 | 0.929 | 0.796 | 0.511 | 0.649 | 0.698 | 0.625 | 0.773 | 0.525 | 0.588 | 0.619 | 0.568 |
| COR-L 105 | 0.4 | 0.473 | 0.411 | 0.443 | 0.417 | 0.882 | 1.15 | 1.23 | 1.3 | 0.468 | 0.406 | 0.438 | 0.427 | 0.58 | 0.706 | 1.05 | 0.791 | 0.703 |
| LK-2 | 0.508 | 0.724 | 0.729 | 0.558 | 0.496 |  | 1.07 | 0.687 | 0.739 | 0.643 | 0.788 | 0.562 | 0.565 | 0.755 | 0.26 | 0.217 | 0.234 | 0.269 |
| 201T | 0.602 | 0.603 | 0.709 | 0.742 | 0.695 | 1.1 | 1.1 | 1.18 | 1.03 | 0.719 | 0.729 | 0.737 | 0.783 | 0.705 | 1.03 | 1.07 | 1.06 | 1.02 |
| NCI-H647 | 0.319 | 0.532 |  | 0.542 | 0.508 | 1.12 | 1.01 | 1.24 | 1.08 | 0.377 | 0.48 | 0.487 | 0.609 | 0.439 | 0.851 | 1.07 | 1.12 | 0.989 |
| H3255 | 0.452 | 0.454 | 0.427 | 0.417 | 0.582 | 0.739 | 0.898 | 0.699 | 0.773 | 0.512 | 0.564 | 0.617 | 0.739 | 0.731 | 0.861 | 0.916 | 0.951 | 0.727 |
| NCI-H650 | 0.789 | 0.838 | 0.92 | 0.836 | 0.79 | 0.968 | 1.03 | 1.02 | 0.884 | 0.942 | 0.918 | 0.984 | 1.13 | 1.13 | 0.598 | 0.663 | 0.695 | 0.605 |
| NCI-H2023 | 0.173 | 0.202 | 0.278 | 0.25 | 0.277 | 0.778 | 0.89 | 0.962 | 0.657 | 0.555 | 0.619 | 0.615 | 0.574 | 0.491 | 0.711 | 0.769 | 0.788 | 0.664 |
| NCI-H23 | 0.415 | 0.534 | 0.483 | 0.498 | 0.711 | 0.949 | 1.04 | 1.04 | 0.832 | 0.342 | 0.438 | 0.364 | 0.515 | 0.55 | 0.471 | 0.488 | 0.504 | 0.558 |
| NCI-H2170 | 0.261 | 0.299 | 0.315 | 0.354 | 0.317 | 0.953 | 0.898 | 0.966 | 0.927 | 0.909 | 0.909 | 0.949 | 0.97 | 0.919 | 1.13 | 1.15 | 1.22 | 1.17 |
| NCI-H1944 | 0.303 | 0.346 | 0.344 | 0.39 | 0.358 | 0.876 | 0.856 | 1.05 | 0.859 | 0.389 | 0.387 | 0.407 | 0.453 | 0.433 | 1.07 | 1.24 | 1.23 | 1.01 |
| NCI-H596 | 0.383 | 0.379 | 0.417 | 0.381 | 0.39 | 0.732 | 0.753 | 0.851 | 0.721 | 0.798 | 1.02 | 0.808 | 0.814 | 0.915 | 0.905 | 0.891 | 0.917 | 0.843 |
| NCI-H520 |  | 0.302 | 0.335 | 0.278 | 0.254 | 0.628 | 0.786 | 0.496 | 0.596 | 0.606 | 0.78 | 0.644 | 0.751 | 0.6 | 0.682 | 0.843 | 0.841 | 0.581 |
| EKVX | 0.411 | 0.402 | 0.415 | 0.507 | 0.517 | 0.615 | 0.784 | 0.846 | 1.01 | 0.337 | 0.349 | 0.267 | 0.318 | 0.449 | 0.789 | 0.995 | 1.09 | 1.02 |

From the supplement of paper PMC10307832
